Broadly, the MIC is the smallest concentration in the dilution series that meets the test's criterion for growth inhibition.

Each structure is given as a SMILES string. ≈ marks a conversion by molar mass, not a printed value. Some results are limits rather than exact numbers.

What all share (type): cell-based
Experiment [1] deals with Aspergillus flavus. The experiment is described as follows: MIC, YAG medium, Aspergillus flavus. As to conditions: Aspergillus flavus; YAG medium; read-out: MIC A Flavus 01. On the procedure: (§1) Measurement of Minimum Inhibitory Concentrations (MICs)
(§2) Between 1 and 5 mgs of compound were accurately weighed out into a sterile Eppendorf tube. The compound was dissolved in DMSO to give a solution containing 5 mg/ml. Tubes were stored at −20° C. until required.
(§3) On the day of testing thawed solutions were vortex mixed to ensure homogeneity. 30 μl of solution was removed and added to 570 μl of sterile water in a separate sterile Eppendorf. The thoroughly mixed solution was used to prepare a series of doubling dilutions in water, in a deep well plate. Eleven replicate plates were prepared using a Minitrak by aspirating 20 μl from each well into eleven clear polystyrene 96 well plates.
(§4) Spores of Aspergillus spp (Aspergillus fumigatus, Aspergillus terreus, Aspergillus niger and Aspergillus flavus) were harvested from cultures grown on Sabarauds agar for 5 days, and resuspended in PBS/Tween 80 to approx 1×10^7 cfu/ml Other filamentous fungi (Fusarium solani, Scedosporium spp., Trichophyton spp., Absidia corymbifera), were grown on Sabarauds agar for 2-10 days and spores/hyphae resuspended in PBS/Tween to give approx 1×10^7 cfU/ml. Candida species (Candida albicans, Candida glabrata, Candida krusei, Candida parapsilosis and Candida tropicalis) were grown on Sabarauds agar, cells were harvested from the agar using a sterile loop and resuspended in PBS/Tween 80 to approx 1×10^6 cfu/ml. Each organism suspension was diluted in RPMI medium, containing 2% glucose and 0.135M MOPS buffer (pH7.0) to 2×10^4 cfu/ml for Aspergillus spp and other filamentous fungi and 2×10^3 cfu/ml for yeast. 80 μl of an organism suspension was added to each well of the plate containing drug dilutions.
(§5) This produced MIC plates with a drug range 50-0.05 mg/L and organism inocula of 1-2×10^4 cfu/ml for Aspergillus spp and other filamentous fungi and 1-2×10^3 cfu/ml for yeasts. All plates were incubated for 24-48 hrs at 35° C. Growth was assessed by monitoring the optical density at 485 nm for each well. The MIC of a compound is the lowest drug concentration that inhibits growth of an organism by >80% compared with a drug free control. MICs are recorded as mg/L. Other growth media can be used for susceptibility testing, and the activity of the described compounds can also be assessed in a medium comprising, 1% glucose, 1% ammonium chloride and 0.5% yeast extract (YAG medium). To perform MIC tests in this medium, dilutions of compounds are prepared in microtitre plates as described above. Fungal strains to be tested are grown and harvested in an identical manner to that described above, each organism suspension is then diluted in YAG medium to 2×10^4 cfu/ml for Aspergillus spp and other filamentous fungi and 2×10^3 cfu/ml for yeast. 80 μl of an organism suspension was added to each well of the plate containing drug dilutions. This produced MIC plates with a drug range 50-0.05 mg/L and organism inocula of 1-2×10^4 cfu/ml for Aspergillus spp and other filamentous fungi and 1-2×10^3 cfu/ml for yeasts. All plates were incubated for 24 hrs at 35° C. Growth was assessed by monitoring the optical density at 485 nm for each well. The MIC of a compound is the lowest drug concentration that inhibits growth of an organism by >70% compared with a drug free control. MICs are recorded as mg/L. In cases where the MIC of an organism is […]0.05 mg/L the MIC is repeated using a concentration range of 0.5-0.0005 mg/L. MIC tests in YAG medium have more clear-cut endpoints and have slightly lower MICS than those performed in RPMI medium.
(§6) The following organisms were tested: Aspergillus fumigatus AF293 and Aspergillus fumigatus AF210, Aspergillus niger, Aspergillus terreus, Aspergillus favus, Candida albicans, Candida krusei, Candida tropicalis, Candida glabrata, Candida parapsilosis, Trichophyton rubrum, Trichophyton mentagrophytes, Scedosporium prolificans, Scedosporium apiospermum, Absidia corymbifera, Fusarium solani.

Experiment [2] relates to Aspergillus fumigatus AF293. The experiment can be described thus: MIC, YAG medium, Aspergillus fumigatus AF293. As to conditions: Aspergillus fumigatus, AF293; YAG medium; read-out: MIC A Fum. 293. The procedure: as §1, §2, §3, §4, §5, §6
Experiment [3] relates to Aspergillus niger. The experiment can be described thus: MIC, YAG medium, Aspergillus niger. As to conditions: Aspergillus niger; YAG medium; read-out: MIC A Niger 1. On the procedure:
as §1, §2, §3, §4, §5, §6

Experiment [4] has as its system Aspergillus terreus. The experiment is described as follows: MIC, YAG medium, Aspergillus terreus. The settings on record: Aspergillus terreus; YAG medium; read-out: MIC A Terreus 4. On the procedure: as §1, §2, §3, §4, §5, §6
The subject of experiment [5] is Aspergillus fumigatus AF210. The experiment is described as follows: MIC, YAG medium, Aspergillus fumigatus AF210. As to conditions: Aspergillus fumigatus, AF210; YAG medium; read-out: MIC A Fum. 210. On the procedure:
as §1, §2, §3, §4, §5, §6

In the case of `O=C(Nc1ccc(Br)cc1)C(=O)c1c(-c2cccnc2)cc2ccccn12` [Example 214, N-(4-Bromo-phenyl)-2-oxo-2-(2-pyridin-3-yl-indolizin-3-yl)-acetamide], the MIC in experiment [1] turned out to be 0.1 µg/mL (≈ 0.238 µM); in experiment [2] it was 0.8 µg/mL (≈ 1.9 µM); in experiment [3] it was 0.4 µg/mL (≈ 0.952 µM); in experiment [4] it was 0.1 µg/mL (≈ 0.238 µM); in experiment [5] it was 0.8 µg/mL (≈ 1.9 µM).
As to `O=C(Nc1ccc(Cl)cc1)C(=O)c1c(-c2cccnc2)cc2ccccn12` [Example 197, N-(4-Chloro-phenyl)-2-oxo-2-(2-pyridin-3-yl-indolizin-3-yl)-acetamide], the MIC in experiment [1] worked out at 0.4 µg/mL (≈ 1.06 µM); in experiment [2], 3.1 µg/mL (≈ 8.25 µM); in experiment [3] it was 0.8 µg/mL (≈ 2.13 µM); in experiment [4], 0.2 µg/mL (≈ 0.532 µM); in experiment [5], 3.1 µg/mL (≈ 8.25 µM).
As to `Cc1ccc(NC(=O)C(=O)c2c(-c3ccccn3)cc3ccccn23)cc1` [Example 175, 2-Oxo-2-(2-pyridin-2-yl-indolizin-3-yl)-N-p-tolyl-acetamide], the MIC in experiment [1] was above 50 µg/mL; in experiment [2], above 50 µg/mL; in experiment [3], above 50 µg/mL; in experiment [4], 3.1 µg/mL (≈ 8.72 µM); in experiment [5] it was 3.1 µg/mL (≈ 8.72 µM).
`COc1ccc(NC(=O)C(=O)c2c(-c3ccccc3)cc3cccc(C)n23)cc1` [Example 237, N-(4-Methoxy-phenyl)-2-(5-methyl-2-phenyl-indolizin-3-yl)-2-oxo-acetamide]: the MIC in experiment [1] turned out to be 1.6 µg/mL (≈ 4.16 µM); in experiment [2] it was 1.6 µg/mL (≈ 4.16 µM); in experiment [3] it was 0.8 µg/mL (≈ 2.08 µM); in experiment [4] it was 0.4 µg/mL (≈ 1.04 µM); in experiment [5], 3.1 µg/mL (≈ 8.06 µM).
Regarding `CN(C)C(=O)c1ccc(NC(=O)C(=O)c2c(-c3ccccc3)cc3ccccn23)cc1` [Example 160, N,N-Dimethyl-4-[2-oxo-2-(2-phenyl-indolizin-3-yl)-acetylamino]-benzamide], the MIC in experiment [1] is 3.1 µg/mL (≈ 7.53 µM); in experiment [2] it was 50 µg/mL (≈ 122 µM); in experiment [3], 0.4 µg/mL (≈ 0.972 µM); in experiment [4], 50 µg/mL (≈ 122 µM); in experiment [5], 50 µg/mL (≈ 122 µM).
For `CN(C)c1ccc(NC(=O)C(=O)c2c(-c3cccnc3)cc3ccccn23)cc1` [Example 230, N-(4-Dimethylamino-phenyl)-2-oxo-2-(2-pyridin-3-yl-indolizin-3-yl)-acetamide], the MIC in experiment [1] is 0.1 µg/mL (≈ 0.26 µM); in experiment [2], above 50 µg/mL; in experiment [3] it was 3.1 µg/mL (≈ 8.06 µM); in experiment [4], 0.2 µg/mL (≈ 0.52 µM); in experiment [5], above 50 µg/mL.
In the case of `Cc1ccc(NC(=O)C(=O)c2c(-c3ccccc3)cc3ccc(C)cn23)cc1` [Example 190, 2-(6-Methyl-2-phenyl-indolizin-3-yl)-2-oxo-N-p-tolyl-acetamide], the MIC in experiment [1] came out at 0.4 µg/mL (≈ 1.09 µM); in experiment [2] it was 1.6 µg/mL (≈ 4.34 µM); in experiment [3], 0.4 µg/mL (≈ 1.09 µM); in experiment [4], 0.1 µg/mL (≈ 0.271 µM); in experiment [5], 1.6 µg/mL (≈ 4.34 µM).
Regarding `O=C(Nc1ccccc1Cl)C(=O)c1c(-c2ccccc2)cc2ccccn12` [Example 207, N-(2-Chloro-phenyl)-2-oxo-2-(2-phenyl-indolizin-3-yl)-acetamide], the MIC is 0.1 µg/mL (≈ 0.267 µM) in experiment [1]; 0.8 µg/mL (≈ 2.13 µM) in experiment [2]; 0.05 µg/mL (≈ 0.133 µM) in experiment [3]; 0.05 µg/mL (≈ 0.133 µM) in experiment [4]; 0.8 µg/mL (≈ 2.13 µM) in experiment [5].
`O=C(Nc1ccc(C(=O)O)cc1)C(=O)c1c(-c2ccccc2)cc2ccccn12` [Example 159, 4-[2-Oxo-2-(2-phenyl-indolizin-3-yl)-acetylamino]-benzoic acid]: the MIC is above 50 µg/mL in experiment [1]; above 50 µg/mL in experiment [2]; 1.6 µg/mL (≈ 4.16 µM) in experiment [3]; 50 µg/mL (≈ 130 µM) in experiment [4]; above 50 µg/mL in experiment [5].
Regarding `COc1ccc(NC(=O)C(=O)c2c(-c3ccco3)cc3ccccn23)cc1` [Example 164, 2-(2-Furan-2-yl-indolizin-3-yl)-N-(4-methoxy-phenyl)-2-oxo-acetamide], the MIC was 0.4 µg/mL (≈ 1.11 µM) in experiment [1]; above 50 µg/mL in experiment [2]; 0.4 µg/mL (≈ 1.11 µM) in experiment [3]; above 50 µg/mL in experiment [4]; above 50 µg/mL in experiment [5].
For the compound `COc1ccc(NC(=O)C(=O)c2c(-c3cccc(C#N)c3)cc3ccccn23)cc1` [Example 236, 2-[2-(3-Cyano-phenyl)-indolizin-3-yl]-N-(4-methoxy-phenyl)-2-oxo-acetamide], the MIC was 0.1 µg/mL (≈ 0.253 µM) in experiment [1]; above 50 µg/mL in experiment [2]; above 50 µg/mL in experiment [3]; 0.05 µg/mL (≈ 0.126 µM) in experiment [4]; above 50 µg/mL in experiment [5].
As for `CC(=O)c1ccc(NC(=O)C(=O)c2c(-c3cccnc3)cc3ccccn23)cc1` [Example 217, N-(4-Acetyl-phenyl)-2-oxo-2-(2-pyridin-3-yl-indolizin-3-yl)-acetamide], the MIC in experiment [1] was 0.8 µg/mL (≈ 2.09 µM); in experiment [2], above 50 µg/mL; in experiment [3], above 50 µg/mL; in experiment [4], 3.1 µg/mL (≈ 8.09 µM); in experiment [5], above 50 µg/mL.
Turning to `COc1ccc(NC(=O)C(=O)c2c(-c3ccccc3)cc3ccc(C)cn23)cn1` [Example 192, N-(6-Methoxy-pyridin-3-yl)-2-(6-methyl-2-phenyl-indolizin-3-yl)-2-oxo-acetamide], the MIC is 0.4 µg/mL (≈ 1.04 µM) in experiment [1]; 1.6 µg/mL (≈ 4.15 µM) in experiment [2]; 0.8 µg/mL (≈ 2.08 µM) in experiment [3]; 0.4 µg/mL (≈ 1.04 µM) in experiment [4]; 1.6 µg/mL (≈ 4.15 µM) in experiment [5].
As for `COc1ccc(NC(=O)C(=O)c2c(-c3ccccc3)cc3c(C)cccn23)cc1` [Example 234, N-(4-Methoxy-phenyl)-2-(8-methyl-2-phenyl-indolizin-3-yl)-2-oxo-acetamide], the MIC in experiment [1] is above 50 µg/mL; in experiment [2] it was above 50 µg/mL; in experiment [3] it was above 50 µg/mL; in experiment [4], 1.6 µg/mL (≈ 4.16 µM); in experiment [5], above 50 µg/mL.
In the case of `CN(C(=O)C(=O)c1c(-c2ccccc2)cc2ccccn12)c1ccccc1` [Example 186, N-Methyl-2-oxo-N-phenyl-2-(2-phenyl-indolizin-3-yl)-acetamide], the MIC in experiment [1] stood at 25 µg/mL (≈ 70.5 µM); in experiment [2], 12.5 µg/mL (≈ 35.3 µM); in experiment [3] it was 3.1 µg/mL (≈ 8.75 µM); in experiment [4], 12.5 µg/mL (≈ 35.3 µM); in experiment [5], 3.1 µg/mL (≈ 8.75 µM).
Turning to `O=C(Nc1ccncc1)C(=O)c1c(-c2ccccc2)cc2ccccn12` [Example 158, 2-Oxo-2-(2-phenyl-indolizin-3-yl)-N-pyridin-4-yl-acetamide], the minimal inhibitory concentration (MIC) was above 50 µg/mL in experiment [1]; above 50 µg/mL in experiment [2]; 0.4 µg/mL (≈ 1.17 µM) in experiment [3]; above 50 µg/mL in experiment [4]; above 50 µg/mL in experiment [5].
For `COc1ccc(NC(=O)C(=O)c2c(-c3ccccc3)cc3cc(C)ccn23)cn1` [Example 193, N-(6-Methoxy-pyridin-3-yl)-2-(7-methyl-2-phenyl-indolizin-3-yl)-2-oxo-acetamide], the MIC in experiment [1] was 6.25 µg/mL (≈ 16.2 µM); in experiment [2], above 50 µg/mL; in experiment [3] it was above 50 µg/mL; in experiment [4] it was 0.8 µg/mL (≈ 2.08 µM); in experiment [5] it was above 50 µg/mL.
For the compound `O=C(Nc1ccc(F)cc1)C(=O)c1c(-c2ccc(F)cc2)cc2ccccn12` [Example 209, N-(4-Fluoro-phenyl)-2-[2-(4-fluoro-phenyl)-indolizin-3-yl]-2-oxo-acetamide], the MIC in experiment [1] is 0.1 µg/mL (≈ 0.266 µM); in experiment [2], above 50 µg/mL; in experiment [3], 0.05 µg/mL (≈ 0.133 µM); in experiment [4], 0.05 µg/mL (≈ 0.133 µM); in experiment [5], above 50 µg/mL.
